Assay: Solubility of desvenlafaxine salts in water at 23° C.
Settings: for Solubility of desvenlafaxine salts in water: 23° C.

SMILES	Solubility of desvenlafaxine salts in water [mg/mL]	solubility in water (result in words) (refers to Table 1)
CN(C)CC(c1ccc(O)cc1)C1(O)CCCCC1.O=C(O)C1OC(O)C(O)C(O)C1O [glucuronate amorphous, desvenlafaxine D-glucuronate]	338	
CN(C)CC(c1ccc(O)cc1)C1(O)CCCCC1.O=C[C@H](O)[C@@H](O)[C@H](O)[C@H](O)C(=O)O (stereo not drawn) [O-desmethyl-venlafaxine glucuronate]		good solubility in water
CN(C)CC(c1ccc(O)cc1)C1(O)CCCCC1.O.O=C(O)C1OC(O)C(O)C(O)C1O [glucuronate crystalline, desvenlafaxine D-glucuronate monohydrate]	299	
